Assay: xn = mol fraction of the nth substance listed

CC[NH3+].O=[N+]([O-])[O-] + CC[NH2+]CC.O=[N+]([O-])[O-]
Settings	electrical conductivity [S/m]
323.15 K, 101 kPa, frequency 0.00293 MHz, x2 = 0	4.22

101 kPa, x2 = 0
Settings	viscosity [mPa·s]
323.15 K	17.6
333.15 K	13.8

CC[NH3+].O=[N+]([O-])[O-] + CC[N+](CC)(CC)CC.O=[N+]([O-])[O-]
Settings	viscosity [mPa·s]
338.15 K, 101 kPa, x2 = 0	12.5

CCCCCCCCCCCCOS(=O)(=O)[O-].[Na+] + CCCCCCCCCCCCCCCC[N+](C)(C)C.[Br-] + O
298.15 K, 101 kPa, frequency 0.001 MHz
Settings	electrical conductivity [S/m]
x1 = 3e-08, x2 = 0	0.000305
x1 = 1.029e-05, x2 = 0	0.00434
x1 = 2.57e-05, x2 = 0	0.0104
x1 = 3.699e-05, x2 = 0	0.0155
x1 = 5.034e-05, x2 = 0	0.0213
x1 = 6.37e-05, x2 = 0	0.0264
x1 = 7.295e-05, x2 = 0	0.0301
x1 = 8.321e-05, x2 = 0	0.0349
x1 = 9.348e-05, x2 = 0	0.0392
x1 = 0.0001038, x2 = 0	0.0422
x1 = 0.000113, x2 = 0	0.0461
x1 = 0.0001212, x2 = 0	0.051
x1 = 0.0001315, x2 = 0	0.054
x1 = 0.0001418, x2 = 0	0.0567
x1 = 0.00015, x2 = 0	0.0607
x1 = 0.0001582, x2 = 0	0.0631
x1 = 0.0001665, x2 = 0	0.0649
x1 = 0.0001737, x2 = 0	0.0661
x1 = 0.000183, x2 = 0	0.0673
x1 = 0.0001944, x2 = 0	0.0683
x1 = 0.0002036, x2 = 0	0.0701
x1 = 0.000214, x2 = 0	0.0713
x1 = 0.0002222, x2 = 0	0.0737
x1 = 0.0002315, x2 = 0	0.075
x1 = 0.0002408, x2 = 0	0.0771
x1 = 0.0002521, x2 = 0	0.0792
x1 = 0.0002625, x2 = 0	0.0801
x1 = 0.0002738, x2 = 0	0.0823
x1 = 0.0002862, x2 = 0	0.0841

CCCCCCCCCCCC[N+](C)(C)Cc1ccccc1.O=S(=O)([N-]S(=O)(=O)C(F)(F)F)C(F)(F)F + CCCCO
101 kPa
Settings	viscosity [mPa·s]
298.15 K, x1 = 1	1425
303.15 K, x1 = 0.3015	34.1
308.15 K, x1 = 0.3015	27.3
308.15 K, x1 = 1	683
313.15 K, x1 = 0.7485	198
318.15 K, x1 = 0.1507	7.45
318.15 K, x1 = 0.4494	37.6
328.15 K, x1 = 0.9164	159
333.15 K, x1 = 0.1507	4.83
333.15 K, x1 = 0.4494	20.6
333.15 K, x1 = 0.594	40.9
338.15 K, x1 = 0.7485	63
338.15 K, x1 = 1	118
343.15 K, x1 = 0.7485	52.4
348.15 K, x1 = 0.594	25.2

CCCCCCCCCCCCCCCC[n+]1ccccc1.[Cl-] + O
Settings	electrical conductivity [S/m]
293.15 K, 100 kPa, x1 = 3.6e-06	0.0028
293.15 K, 100 kPa, x1 = 7.21e-06	0.005
293.15 K, 100 kPa, x1 = 1.442e-05	0.0091
298.15 K, 100 kPa, x1 = 3.6e-06	0.0028
298.15 K, 100 kPa, x1 = 7.21e-06	0.0051
298.15 K, 100 kPa, x1 = 1.081e-05	0.0076
298.15 K, 100 kPa, x1 = 1.442e-05	0.0098
298.15 K, 100 kPa, x1 = 9.009e-05	0.02
303.15 K, 100 kPa, x1 = 3.6e-06	0.003
303.15 K, 100 kPa, x1 = 7.21e-06	0.0057
303.15 K, 100 kPa, x1 = 1.081e-05	0.0083
303.15 K, 100 kPa, x1 = 9.009e-05	0.021
308.15 K, 100 kPa, x1 = 3.6e-06	0.0034
308.15 K, 100 kPa, x1 = 7.21e-06	0.0065
308.15 K, 100 kPa, x1 = 1.081e-05	0.0095
308.15 K, 101 kPa, x1 = 5.4e-07	0.000222
308.15 K, 101 kPa, x1 = 9e-07	0.00029
308.15 K, 101 kPa, x1 = 1.62e-06	0.0004
308.15 K, 101 kPa, x1 = 2.34e-06	0.000465
308.15 K, 101 kPa, x1 = 2.88e-06	0.000581
308.15 K, 101 kPa, x1 = 3.78e-06	0.000705
308.15 K, 101 kPa, x1 = 4.5e-06	0.000794
308.15 K, 101 kPa, x1 = 5.59e-06	0.000937
308.15 K, 101 kPa, x1 = 6.85e-06	0.00106
308.15 K, 101 kPa, x1 = 7.93e-06	0.001222
308.15 K, 101 kPa, x1 = 9.01e-06	0.001438
308.15 K, 101 kPa, x1 = 1.009e-05	0.00159
308.15 K, 101 kPa, x1 = 1.117e-05	0.001701
308.15 K, 101 kPa, x1 = 1.333e-05	0.00209
308.15 K, 101 kPa, x1 = 1.55e-05	0.00219
308.15 K, 101 kPa, x1 = 1.766e-05	0.00237
308.15 K, 101 kPa, x1 = 1.982e-05	0.00248
308.15 K, 101 kPa, x1 = 2.18e-05	0.00259
308.15 K, 101 kPa, x1 = 2.397e-05	0.00264
308.15 K, 101 kPa, x1 = 2.595e-05	0.00278
308.15 K, 101 kPa, x1 = 3.009e-05	0.00297
308.15 K, 101 kPa, x1 = 3.406e-05	0.00314
308.15 K, 101 kPa, x1 = 3.802e-05	0.00328
308.15 K, 101 kPa, x1 = 4.18e-05	0.00342
308.15 K, 101 kPa, x1 = 4.559e-05	0.00356
308.15 K, 101 kPa, x1 = 4.919e-05	0.00369
308.15 K, 101 kPa, x1 = 5.099e-05	0.00375
308.15 K, 101 kPa, x1 = 6e-05	0.00403
308.15 K, 101 kPa, x1 = 6.847e-05	0.00432
308.15 K, 101 kPa, x1 = 7.658e-05	0.00454
308.15 K, 101 kPa, x1 = 8.433e-05	0.00477
308.15 K, 101 kPa, x1 = 9.189e-05	0.00497
308.15 K, 101 kPa, x1 = 9.91e-05	0.00516
308.15 K, 101 kPa, x1 = 0.000106	0.00533
308.15 K, 101 kPa, x1 = 0.0001126	0.0055
313.15 K, 100 kPa, x1 = 9.009e-05	0.023

Cc1ccccc1 + CCCC[N+]1(C)CCCC1.O=S(=O)([N-]S(=O)(=O)C(F)(F)F)C(F)(F)F
Settings	viscosity [mPa·s]
308.15 K, 100 kPa, x1 = 1	0.509

COC(=O)OC + CC[n+]1ccn(C)c1.O=S(=O)([N-]S(=O)(=O)C(F)(F)F)C(F)(F)F
101.3 kPa, x2 = 0
Settings	viscosity [mPa·s]
288.15 K	0.668
293.15 K	0.628
298.15 K	0.588
303.15 K	0.553
308.15 K	0.524

O=C1O[C@H]([C@@H](O)CO)C(O)=C1O + CC[n+]1ccn(C)c1.O=S(=O)([O-])O + O
viscosity [mPa·s], 100 kPa
Settings	x1 = 0.0002709, x2 = 0	x1 = 0.0005412, x2 = 0	x1 = 0.0008101, x2 = 0	x1 = 0.001079, x2 = 0	x1 = 0.001351, x2 = 0	x1 = 0.001618, x2 = 0	x1 = 0.00189, x2 = 0
293.15 K	1.01	1.01	1.02	1.02	1.03	1.03	1.04
298.15 K	0.9	0.9	0.91	0.91	0.92	0.92	0.93
303.15 K	0.8	0.81	0.81	0.82	0.82	0.83	0.84
308.15 K	0.72	0.73	0.73	0.74	0.74	0.75	0.76
313.15 K	0.66	0.66	0.67	0.67	0.68	0.68	0.69
318.15 K	0.61	0.61	0.62	0.62	0.63	0.63	0.64

CCCCCCCCCCCC[N+](CC)(CC)CC.O=S(=O)([N-]S(=O)(=O)C(F)(F)F)C(F)(F)F + O
101 kPa, x2 = 0.1247
Settings	viscosity [mPa·s]
293.25 K	157.4
298.05 K	130.7

C[N+]1(CCOCCOCC[N+]2(C)CCCC2)CCCC1.N#C[N-]C#N.N#C[N-]C#N + CC[n+]1ccn(C)c1.O=S(=O)([N-]S(=O)(=O)C(F)(F)F)C(F)(F)F + O=S(=O)([N-]S(=O)(=O)C(F)(F)F)C(F)(F)F.[Li+]
100 kPa, x1 = 0.4178, x2 = 0.4469
Settings	electrical conductivity [S/m]
298 K	0.244
303 K	0.317
313 K	0.431
323 K	0.64
333 K	0.832
343 K	1.1

N[C@@H](Cc1ccccc1)C(=O)O + CCCC[n+]1ccn(C)c1.[Br-] + O
viscosity [mPa·s], 101.3 kPa
Settings	x1 = 0.0003605, x2 = 0	x1 = 0.0007251, x2 = 0	x1 = 0.001079, x2 = 0	x1 = 0.001441, x2 = 0	x1 = 0.001797, x2 = 0	x1 = 0.00216, x2 = 0	x1 = 0.002516, x2 = 0
293.15 K	1.01	1.02	1.03	1.05	1.06	1.08	1.09
298.15 K	0.8	0.81	0.83	0.84	0.85	0.87	0.88
303.15 K	0.71	0.72	0.74	0.75	0.76	0.78	0.79
308.15 K	0.63	0.64	0.66	0.67	0.68	0.7	0.71
313.15 K	0.57	0.58	0.59	0.6	0.62	0.63	0.64

CCCCCCCCn1cc[n+](C)c1.N#C[S-] + [Cl-].[Li+] + CN1CCCC1=O
298.15 K, 101 kPa
Settings	viscosity [mPa·s]
x1 = 0.001139, x2 = 0.07166	3.748
x1 = 0.001259, x2 = 0.03751	2.694
x1 = 0.001303, x2 = 0.1042	5.098
x1 = 0.002343, x2 = 0.1041	5.122
x1 = 0.002465, x2 = 0.07157	3.763
x1 = 0.002516, x2 = 0.03747	2.708
x1 = 0.00365, x2 = 0.104	5.151
x1 = 0.003672, x2 = 0.03742	2.735
x1 = 0.003977, x2 = 0.07146	3.796
x1 = 0.004888, x2 = 0.1039	5.175
x1 = 0.005019, x2 = 0.03737	2.761
x1 = 0.005107, x2 = 0.07138	3.83
x1 = 0.00605, x2 = 0.1038	5.201
x1 = 0.006235, x2 = 0.0713	3.857
x1 = 0.006361, x2 = 0.03732	2.789
x1 = 0.007163, x2 = 0.1036	5.219
x1 = 0.00736, x2 = 0.07122	3.892
x1 = 0.007605, x2 = 0.03728	2.811
x1 = 0.00842, x2 = 0.1035	5.236
x1 = 0.00867, x2 = 0.07112	3.932
x1 = 0.008845, x2 = 0.03723	2.84
x1 = 0.009774, x2 = 0.1034	5.256
x1 = 0.009789, x2 = 0.07104	3.97
x1 = 0.01008, x2 = 0.03718	2.854

N + CCCC[n+]1ccn(C)c1.O=S(=O)([N-]S(=O)(=O)C(F)(F)F)C(F)(F)F
313.2 K, 101 kPa
Settings	viscosity [mPa·s]
x2 = 0.7997	20.1
x2 = 0.8338	21.7
x2 = 0.8696	22
x2 = 0.9099	23.1
x2 = 0.9541	25.1

Source: the CheMixHub ionic liquid set
